Experiments:
Format in all cases: in vivo, human
[1] = system: macular pigment; experiment: Macular pigment optical density by heterochromatic flicker photometry during lutein supplementation; details: 30 mg/day lutein ester, increased from 0.3
[2] = Serum lutein by HPLC during oral lutein ester supplementation; details: subjects three, equivalent of 30 mg lutein per day as lutein esters in canola oil, within the first week
Description: Serum lutein and zeaxanthin was measured by conventional HPLC.
Two healthy adult males (of age/weight 42 year/60 kg and 51 years/61 kg) ingested the equivalent of 30 mg of lutein per day in the form of lutein esters (source: marigold flowers) suspended in 2 ml of canola oil. This was continued over a period of 138 days and then the dose of lutein was discontinued. Chemical analysis has shown that the product contains approximately 97% lutein—and 3% zeaxanthin. Fasting serum lutein/zeaxanthin levels of both individuals were determined by conventional HPLC on the morning of the first dose as a measure of base line. Blood samples were drawn at 2-3 hour intervals throughout the first day for both subjects and then daily for the next three days. Following the first week of supplementation, blood samples were drawn weekly. Blood was collected into a standard Vacutainer serum separator tube containing no anticoagulant. After allowing about 30 min for coagulation, the sample was centrifuged for 10 minutes and the serum removed by pipette. Serum samples were stored at −20° C. prior to analysis. […] 20 μl of an internal standard, monohexyl lutein ether, containing about 90 ng, was added to the solution at this point for quantification of the caratenoids by HPLC. […]

[3] = Skin colour observation during lutein supplementation; details: each subject; after several weeks of administration, 30 mg lutein per day
[4] = system: macular pigment; experiment: Macular pigment optical density by heterochromatic flicker photometry during lutein supplementation
Description: A trial was conducted to determine if dietary supplementation with lutein and zeaxanthin effectively can change the pigment levels in the macula. The optical density of the macula pigment was measured for each subject using the method of flicker photometry (Bone and Sparrock 1971; Bone et al 1992). The concentration of pigment in the macula is proportioned to its optical density and the actual amount of pigment was assumed to be proportional to concentration. Thus, optical density was taken as a measure of the total amount of pigment.
Two healthy adult males (of age/weight 42 year/60 kg and 51 years/61 kg) ingested the equivalent of 30 mg of lutein per day in the form of lutein esters (source: marigold flowers) suspended in 2 ml of canola oil. This was continued over a period of 138 days and then the dose of lutein was discontinued. Chemical analysis has shown that the product contains approximately 97% lutein—and 3% zeaxanthin. Fasting serum lutein/zeaxanthin levels of both individuals were determined by conventional HPLC on the morning of the first dose as a measure of base line. Blood samples were drawn at 2-3 hour intervals throughout the first day for both subjects and then daily for the next three days. Following the first week of supplementation, blood samples were drawn weekly. Blood was collected into a standard Vacutainer serum separator tube containing no anticoagulant. After allowing about 30 min for coagulation, the sample was centrifuged for 10 minutes and the serum removed by pipette. Serum samples were stored at −20° C. prior to analysis. Carotenoids ware extracted from the serum by a minor modification of widely used methods (Guiliano et al, 1993; Handelmann et al, 1992), 200 μl aliquots of serum were diluted with 2 mL of 50% ethanol/water to ensure precipitation of protein components. 20 μl of an internal standard, monohexyl lutein ether, containing about 90 ng, was added to the solution at this point for quantification of the caratenoids by HPLC. This solution was extracted 3 times with 2 mL portions of hexane by vortexing the sample for 1 min followed by centrifuging for 5 minutes and pipetting off the hexane layer. The three portions of hexane were dried under a stream of nitrogen gas and stared under nitrogen at −20° C. until analysis was completed.
The optical density of the macular pigment was measured for each subject using the method of heterochomatic flicker photometry (Bone and Sparrock, 1971; Bone et al, 1992). The concentration of pigment in the macula is proportional to its optical density and the actual amount of pigment was assumed to be proportional to concentration. Thus optical density was taken to be a measure of the total amount of pigment.
In the flicker method, a small visual stimulus is presented to the eye which alternates in wavelength between 460 nm, the peak absorbance wavelength of the macular pigment, and 540 nm where pigment absorbance is zero (Bone et al., 1992). Above a certain frequency, color fusion occurs but the stimulus continues to flicker. At a higher frequency, a critical condition can be reached where flicker can be eliminated only if the two wavelength components are matched in luminance. If the stimulus is viewed peripherally, so that the image falls outside the macula, neither wavelength is attenuated by the macular pigment. However, if the stimulus is viewed centrally, the intensity of the 460 nm light must be increased to compensate for absorption by the macular pigment in order to achieve a luminance match. Thus it is possible to determine the optical density of a subject's macular pigment at the peak wavelength, or indeed any other wavelength.
The apparatus consisted of a two-channel Maxwellian view system based on a single light source, a 75 W xenon arc lamp. The wavelengths of the two channels were determined by 460 nm and 540 nm interference filters respectively, having half-widths of 7 and 9 nm. […]

increase in serum lutein concentration (factor) [2] | skin colour of the palms of the hands [3] | Compound | macular pigment optical density ([1]; subject one, both eyes, after 75 days, then plateau) | macular pigment optical density ([1]; subject two, left eye only) | day until which optical density continued to rise before plateau ([4]; subject four, both eyes, dose discontinued at day 138) | slope of macular pigment optical density (linear least squares fit) ([4]; subject four, left eye, day -7 to day 83 of lutein supplementation) | macular pigment optical density, final average ([4]; subject four, left eye, initial mean 0.76, p<0.001) | slope of macular pigment optical density (linear least squares fit) ([4]; subject four, right eye, day -7 to day 83 of lutein supplementation) | macular pigment optical density, final average ([4]; subject four, right eye, initial mean 0.66, p<0.001) | macular pigment optical density, final average ([4]; subject three, left eye, average of 15 measurements over 18 days at end of experiment, initial values 0.57 and 0.58, p<0.0005) | slope of macular pigment optical density (linear least squares fit) ([4]; subject three, left eye, day -7 to day 72 of lutein supplementation) | macular pigment optical density, final average ([4]; subject three, right eye, average of 15 measurements over 18 days at end of experiment, initial values 0.57 and 0.58, p<0.0005) | day until which optical density continued to rise before plateau ([4]; subject three, dose of lutein discontinued at day 138)
– | – | lutein ester | 0.5 | 0.5 | – | – | – | – | – | – | – | – | –
about 10 times | turned a noticeable yellow colour | CC1=C[C@H](O)CC(C)(C)[C@H]1/C=C/C(C)=C/C=C/C(C)=C/C=C/C=C(C)/C=C/C=C(C)/C=C/C1=C(C)C[C@@H](O)CC1(C)C [lutein] | – | – | 200 days | 3.1×10^−3 absorbance units per week | 0.79 | 2.3×10^−3 absorbance units per week | 0.70 | 0.70 | 15.3×10^−3 absorbance units per week | 0.67 | ~180 days
